In PubChem BioAssay AID1259408 (Genetic Toxicology Data Bank (GENE-TOX), 2018) one finds mutagenic call and call data, which are given here for 24 compounds.

The source made the active and inactive calls. The rule behind the calls is not given here.

The subject of this series is GENE-TOX genotoxicity assays, various organisms and cells. Kind of series: GENE-TOX mutagenicity studies. As to conditions: for call: Assay Type: In vivo carcinogenicity studies, Assay Code: CCG+.
[1] abbreviates: Species/Cell Type: Bacillus subtilis (H17 vs M45), Assay Type: Rec-assay, spot test, DNA effects (bacterial DNA repair), Assay Code: REW-, Evaluation Type: Evaluation A (Pre-1980).
[2] abbreviates: Species/Cell Type: Escherichia coli WP2, Assay Type: Tryptophan reverse gene mutation, Assay Code: WP2-, Evaluation Type: Evaluation A (Pre-1980).
[3] abbreviates: Species/Cell Type: Escherichia coli WP2 UVRA, Assay Type: Tryptophan reverse gene mutation, Assay Code: WPU-, Evaluation Type: Evaluation A (Pre-1980).
Where [4] appears, read: Species/Cell Type: Drosophila melanogaster, Assay Type: Sex-linked recessive lethal gene mutation, Assay Code: SRL+, Evaluation Type: Evaluation A (Pre-1980).
Setting [5] is: Species/Cell Type: Drosophila melanogaster, Sex: Male, Assay Type: Heritable translocation test, chromosome aberrations, Assay Code: DHT+, Evaluation Type: Evaluation A (Pre-1980).
The mark [6] stands for this setting: Species/Cell Type: Human, Assay Type: Sister-chromatid exchange (SCE) in vitro, Assay Code: SC1+, Evaluation Type: Evaluation B (Post-1980).
[7] abbreviates: Species/Cell Type: Nonhuman, Evaluation Type: Evaluation A (Pre-1980).
Where [8] appears, read: Species/Cell Type: Nonhuman, Assay Type: Sister-chromatid exchange (SCE) in vivo, Assay Code: SC3+D, Dose Response: With dose response, Evaluation Type: Evaluation A (Pre-1980).
The mark [9] stands for this setting: Species/Cell Type: Salmonella typhimurium (one or more of the five standard strains: TA98, TA100, TA1535, TA1537, and TA1538), Assay Type: Histidine reverse gene mutation, Ames assay, Assay Code: SAL+, Evaluation Type: Evaluation A (Pre-1980).
[10] abbreviates: Species/Cell Type: Salmonella typhimurium (one or more of the five standard strains: TA98, TA100, TA1535, TA1537, and TA1538), Assay Type: Histidine reverse gene mutation, Ames assay, Assay Code: SALT, Evaluation Type: Evaluation A (Pre-1980).
[11] abbreviates: Species/Cell Type: Human lymphocytes, Assay Type: Sister-chromatid exchange (SCE) in vitro, Assay Code: SCL+D, Dose Response: With dose response, Evaluation Type: Evaluation B (Post-1980).
[12] abbreviates: Species/Cell Type: Human, Assay Type: Sister-chromatid exchange (SCE) in vitro, Assay Code: SC1+D, Dose Response: With dose response, Evaluation Type: Evaluation B (Post-1980).
Setting [13] is: Species/Cell Type: Salmonella typhimurium (one or more of the five standard strains: TA98, TA100, TA1535, TA1537, and TA1538), Assay Type: Histidine reverse gene mutation, Ames assay, Assay Code: SAL+*, Activation: With metabolic activation, Evaluation Type: Evaluation A (Pre-1980).

In the case of `CC(C)(C)NCC(O)COc1cccc2c1CCC(=O)N2` (stereo not given), the mutagenic call under setting [1] was “inactive; negative”; the mutagenic call under setting [2] was “inactive; negative”; the mutagenic call under setting [3] is “inactive; negative”; the mutagenic call (Species/Cell Type: Salmonella typhimurium, Assay Type: Forward and reverse gene mutation, host-mediated assay, Assay Code: HMA-, Evaluation Type: Evaluation A (Pre-1980)) was “inactive; negative”.
On to `CN=C(N)NC(=O)Nc1c(C)cccc1C`, for which the mutagenic call (Species/Cell Type: Mammalian polychromatic erythrocytes, Assay Type: Micronucleus test, chromosome aberrations, Assay Code: MNTT, Evaluation Type: Evaluation B (Post-1980)) is reported as “no conclusion”.
As to `O=[N+]([O-])c1ccc(-c2ncn[nH]2)o1`, the mutagenic call by setting is: under setting [2], “inactive; negative”; (Species/Cell Type: Escherichia coli WP2 UVRA, Assay Type: Tryptophan reverse gene mutation, Assay Code: WPU+, Evaluation Type: Evaluation A (Pre-1980)) “active; positive”.
For `O=P(OCC(Br)CBr)(OCC(Br)CBr)OCC(Br)CBr` (stereo not given), the mutagenic call is, setting by setting: (Species/Cell Type: Chinese hamster lung (V79) cells, Assay Type: Forward gene mutation, host-mediated assay, Assay Code: HMG+, Evaluation Type: Evaluation A (Pre-1980)) “active; positive”; under setting [4], “active; positive”; under setting [5], “active; positive”; under setting [6], “active; positive”; (Species/Cell Type: Mammalian polychromatic erythrocytes, Assay Type: Micronucleus test, chromosome aberrations, Assay Code: MNT+, Evaluation Type: Evaluation B (Post-1980)) “active; positive”; (Species/Cell Type: Mouse, Sex: Male, Assay Type: Sperm morphology, Assay Code: SPI+, Evaluation Type: Evaluation A (Pre-1980)) “active; positive”. Further, the mutagenic call (Species/Cell Type: Nonhuman, Assay Type: Sister-chromatid exchange (SCE) in vitro, Assay Code: SC2+D, Dose Response: With dose response, Evaluation Type: Evaluation A (Pre-1980)) was “active; positive”; the mutagenic call under setting [8] is “active; positive”; the mutagenic call under setting [9] is “active; positive”. In addition, the call under setting [7] is “active; positive”.
As to `Cc1ccc2c(ccc3c4c(ccc32)C(=O)CC4)c1`, the mutagenic call under setting [10] is reported as “no conclusion”.
As to `Cc1[nH]cnc1CSCCN=C(NC#N)N(C)N=O`, the mutagenic call runs as follows: under setting [11], “active; positive”; under setting [12], “active; positive”; (Species/Cell Type: Nonhuman, Assay Type: Sister-chromatid exchange (SCE) in vitro, Assay Code: SC2+D, Dose Response: With dose response, Evaluation Type: Evaluation B (Post-1980)) “active; positive”.
Turning to `Cc1cc2c(c3ccc4ccccc4c13)CCC2C` (stereo not given), the mutagenic call under setting [13] was “active; positive”.
Turning to `CCOC(=O)N(C)C(=O)CSP(=S)(OCC)OCC`, the mutagenic call (Species/Cell Type: Bacillus subtilis (H17 vs M45), Assay Type: Rec-assay, spot test, DNA effects (bacterial DNA repair), Assay Code: REWT, Evaluation Type: Evaluation A (Pre-1980)) is on record as “no conclusion”.
Regarding `CC(=O)ON(C)c1ccc(N=Nc2ccccc2)cc1`, the mutagenic call under setting [9] was “active; positive”.
Consider `CN(C)c1ccc(N=Nc2ccc3nc4ccc(N)cc4[n+](-c4ccccc4)c3c2)cc1`, for which, under setting [1], the mutagenic call was “inactive; negative”.
With `CCC1(CC)C(=O)NC(=O)NC1=O`, the mutagenic call is “active; positive” (Species/Cell Type: Nonhuman bone marrow, Assay Type: Chromosome aberrations, in vivo, Assay Code: CY#+, Evaluation Type: Evaluation A (Pre-1980)) and “inactive; negative” (Species/Cell Type: Nonhuman, Assay Type: Sister-chromatid exchange (SCE) in vitro, Assay Code: SC2-, Evaluation Type: Evaluation A (Pre-1980)).
`Cc1ccccc1N=Nc1c(N)ccc2ccccc12`: the mutagenic call (Species/Cell Type: Bacillus subtilis (H17 vs M45T), Assay Type: Rec-assay, spot test, DNA effects (bacterial DNA repair), Assay Code: REXT, Evaluation Type: Evaluation A (Pre-1980)) is reported as “no conclusion”.
Take `O=[Se]=O`: the mutagenic call by setting is: (Species/Cell Type: Bacillus subtilis (H17 vs M45), Assay Type: Rec-assay, spot test, DNA effects (bacterial DNA repair), Assay Code: REW+, Evaluation Type: Evaluation A (Pre-1980)) “active; positive”; under setting [11], “active; positive”; under setting [12], “active; positive”; (Species/Cell Type: Nonhuman, Assay Type: Sister-chromatid exchange (SCE) in vitro, Assay Code: SC2-, Evaluation Type: Evaluation B (Post-1980)) “inactive; negative”.
Consider `c1ccc2c(c1)ccc1nc3ccc4ccccc4c3cc12`, for which the mutagenic call is, setting by setting: (Species/Cell Type: Fischer rat embryo (RLV/1706) cells, Assay Type: Cell transformation, viral enhanced, Assay Code: CTR+, Evaluation Type: Evaluation A (Pre-1980)) “active; positive”; under setting [13], “active; positive”. For the same compound, under setting [7], the call was “active; positive”.
`CC(=O)OCC1=C(C(=O)O)N2C(=O)[C@@H](NC(=O)Cc3cccs3)[C@H]2SC1`: the mutagenic call (Species/Cell Type: Escherichia coli polA (W3119 vs P3478), Assay Type: Rec-assay, DNA effects (bacterial DNA repair), Assay Code: RE1-, Evaluation Type: Evaluation A (Pre-1980)) was “inactive; negative”.
For `NC(=O)c1cccnc1`, the mutagenic call runs as follows: under setting [6], “active; positive”; (Species/Cell Type: Nonhuman, Assay Type: Sister-chromatid exchange (SCE) in vitro, Assay Code: SC2+, Evaluation Type: Evaluation B (Post-1980)) “active; positive”.
For `O[C@@H]1C=Cc2cc3ccc4cccc5ccc(c2[C@@H]1O)c3c45`, the mutagenic call (Species/Cell Type: Chinese hamster lung (V79) cells, Assay Type: Forward gene mutation at the HPRT or ouabain locus, Assay Code: V79-, Evaluation Type: Evaluation A (Pre-1980)) was “inactive; negative” and the mutagenic call under setting [10] is listed as “no conclusion”.
Turning to `O=C1c2ccccc2C(=O)c2c1ccc(O[C@@H]1O[C@H](CO)[C@@H](O)[C@H](O)[C@H]1O)c2O`, the mutagenic call under setting [13] was “active; positive”.
On to `[Cl][Cu][Cl]`, for which the mutagenic call under setting [1] was “inactive; negative”.
As to `NC(=O)N/N=C/c1ccco1`, the mutagenic call under setting [3] is “inactive; negative”.
On to `O=[N+]([O-])c1ccc(N=Nc2ccccc2)cc1`, for which, under setting [9], the mutagenic call is “active; positive”.
On to `Cn1c(=O)c(N)c(-c2ccccc2)c2cc(Cl)ccc21`, for which, under setting [10], the mutagenic call was “no conclusion”.
For the compound `CN(C)N=Nc1ccccc1`, the mutagenic call by setting is: (Species/Cell Type: Drosophila melanogaster, Assay Type: Aneuploidy, partial sex chromosome loss, chromosome aberrations, Assay Code: DAP+M, Evaluation Type: Evaluation A (Pre-1980)) “active; positive”; under setting [4], “active; positive”; under setting [5], “active; positive”; (Species/Cell Type: Escherichia coli polA (W3110 vs P3478), Assay Type: Rec-assay, DNA effects (bacterial DNA repair), Assay Code: RE2+, Evaluation Type: Evaluation A (Pre-1980)) “active; positive”; (Species/Cell Type: Escherichia coli polA (W3119 vs P3478), Assay Type: Rec-assay, DNA effects (bacterial DNA repair), Assay Code: RE1+, Evaluation Type: Evaluation A (Pre-1980)) “active; positive”; (Species/Cell Type: Mammalian polychromatic erythrocytes, Assay Type: Micronucleus test, chromosome aberrations, Assay Code: MNT+, Evaluation Type: Evaluation A (Pre-1980)) “active; positive”. Besides, the mutagenic call was “active; positive” (Species/Cell Type: Neurospora crassa, Assay Type: Forward gene mutation, Assay Code: NEF+, Evaluation Type: Evaluation A (Pre-1980)); “inactive; negative” (Species/Cell Type: Nonhuman lymphocytes or leukocytes, Assay Type: Chromosome aberrations in vivo, Assay Code: CY%-, Evaluation Type: Evaluation A (Pre-1980)); “active; positive” under setting [8]; “active; positive” (Species/Cell Type: Saccharomyces cerevisiae, Assay Type: Forward and reverse gene mutation, mitotic recombination and gene conversion, host-mediated assay, Assay Code: HME+, Evaluation Type: Evaluation A (Pre-1980)); “active; positive” (Species/Cell Type: Saccharomyces cerevisiae, Assay Type: Mitotic recombination or gene conversion, Assay Code: YEC+, Evaluation Type: Evaluation A (Pre-1980)); “active; positive” (Species/Cell Type: Saccharomyces cerevisiae, Assay Type: Mitotic recombination or gene conversion, Assay Code: YEH+, Evaluation Type: Evaluation A (Pre-1980)). Further, under setting [7], the call was “active; positive”.
As for `CC=Cc1ccccc1O`, the mutagenic call under setting [11] was “active; positive” and the mutagenic call under setting [12] is “active; positive”.
